System: A375 cells
Assay: Aerobic glycolysis (NAD+) fluorescence of PFK15-treated A375 cells read out with C3N quantum dots
Format: cell-based
Details: PFK15 20 nM, 12 h; then C3N quantum dots 1 μg/mL 2 h at 25° C.; excitation 400 nm
Method: A375 cells were selected as the samples to be tested with a cell concentration of 10^5.
[…] (PFK15, 20 nM) was added to the cell samples to be tested and incubated for 12 h. C3N quantum dots (with a diameter of 1 nm, a concentration of 1 μg/mL, a solvent of saline) were selected as the aerobic glycolysis detection product. 1 μL of C3N quantum dots were added to the samples to be tested and incubated for 2 h at 25° C. The fluorescence of the samples was observed by a fluorescence microscope (with an excitation wavelength of 400 nm). It can be seen that the fluorescence of the A375 cells with PFK15 treatment (PFK15 can block the aerobic glycolysis metabolism and reduce the NAD^+ concentration in cytoplasm) was decreased by 43% compared with that of the group without PFK15 treatment (results were shown in FIG. 5).

O=C(C=Cc1ccc2ccccc2n1)c1ccncc1 [PFK15, 1-(4-pyridinyl)-3-(2-quinolinyl)-2-propen-1-one]
decrease of fluorescence of A375 cells compared with group without PFK15 treatment: 43%
